From patent US20240416143A1, “PHOTONIC ANTIMICROBIAL WOUND SURFACE DRESSING” (The General Hospital Corporation, priority 2021, published 2024)

Key:
Assay in all cases: Photoinactivation of 48-hour in vitro biofilms by adjuvant/antibiotic + antimicrobial blue light
MRSA biofilm [1] = type: cell-based, methicillin-resistant Staphylococcus aureus; details: 48 h biofilm; aBL 405 nm, 50-250 J/cm^2
Method: (§1) The bacterial suspension was grown in a shaking incubator overnight in BHI broth. Cells were collected by centrifugation at 4,000 rpm for 5 minutes and suspended in PBS at a density of 10^6 CFU/mL. Then, the biofilms were grown for 48 hours (unless otherwise specified) in 96-well microtiter plates as described previously [Ref. 27], with a renewal of the media every 24 hours. Following the 48-hour biofilm growth, fresh 200 μL of PBS with or without menadione in different concentrations were added to the wells and the biofilms were incubated in the dark at 25° C. for 1 hour: 0, 0.5, 1, and 2 μg/mL for MRSA USA300, AF0001, IQ0064; 0, 1, 10, 30 and 50 μg/mL for P. aeruginosa PA01; and 0, 100, and 150 μg/mL for E. coli ATCC 25922. After that, the control and the menadione-treated biofilms were maintained without irradiation (“menadione/dark”). Simultaneously, the aBL was delivered to the other biofilm groups testing different power densities (50, 30, 15, and 10 mW/cm^2) while keeping the same radiant exposure of 250 J/cm^2. After the light exposure, the biofilms were carefully washed two times with PBS and 200 μL of PBS was added to each well. Then, the bacterial biofilms in each well were harvested by scratching with a sterile pipette tip and three wells of each group were pooled together in a 1.5 mL microcentrifuge tube. The total volume obtained, 600 μL (3 wells), was sonicated using a Branson 2510 Water Bath Sonicator (Marshall Scientific, LLC) for 5 minutes and the CFU was determined by 10-fold serial dilutions in PBS on BHI agar plates. CFU was counted after overnight incubation at 37° C. Experiments were performed in triplicate.
A bacterial suspension was grown in a shaking incubator overnight in BHI broth. Cells were collected by centrifugation at 4,000 rpm for 5 minutes and suspended in PBS at a density of 10^6 CFU/mL. Then, the biofilms were grown for 48 hours in 96-well microtiter plates with a renewal of the media every 24 hours. Following the 48-hour biofilm growth, fresh 200 μL of PBS with the tetracyclines minocycline, doxycycline, and demeclocycline in different concentrations were added to the wells and the biofilms were incubated in the dark at 25° C. for 1 hour: 0, 0.25, 0.5, and 1 μg/mL for minocycline; 0, 0.5, 1, and 2 μg/mL for doxycycline; and 0, 0.5, 1, and 2 for demeclocycline. After that, the control and the tetracycline-treated biofilms were maintained without irradiation (“menadione/dark”). Simultaneously, the aBL (405 nm) was delivered to the other biofilm groups testing different power densities (50, 30 mW/cm^2) while keeping the radiant exposures of 50-250 J/cm^2. After the light exposure, the biofilms were carefully washed two times with PBS and 200 μL of PBS was added to each well. Then, the bacterial biofilms in each well were harvested by scratching with a sterile pipette tip and three wells of each group were pooled together in a 1.5 mL microcentrifuge tube. The total volume obtained, 600 μL (3 wells), was sonicated using a Branson 2510 Water Bath Sonicator (Marshall Scientific, LLC) for 5 minutes and the CFU/mL was determined by 10-fold serial dilutions in PBS on BHI agar plates. CFU was counted after overnight incubation at 37° C.

P. aeruginosa biofilm = type: cell-based, Pseudomonas aeruginosa; details: 48 h biofilm; aBL 405 nm, 50-250 J/cm^2
Method: The bacterial suspension was grown in a shaking incubator overnight in BHI broth. Cells were collected by centrifugation at 4,000 rpm for 5 minutes and suspended in PBS at a density of 10^6 CFU/mL. Then, the biofilms were grown for 48 hours (unless otherwise specified) in 96-well microtiter plates as described previously [Ref. 27], with a renewal of the media every 24 hours. Following the 48-hour biofilm growth, fresh 200 μL of PBS with or without menadione in different concentrations were added to the wells and the biofilms were incubated in the dark at 25° C. for 1 hour: 0, 0.5, 1, and 2 μg/mL for MRSA USA300, AF0001, IQ0064; […]; and 0, 100, and 150 μg/mL for E. coli ATCC 25922. After that, the control and the menadione-treated biofilms were maintained without irradiation (“menadione/dark”). Simultaneously, the aBL was delivered to the other biofilm groups testing different power densities (50, 30, 15, and 10 mW/cm^2) while keeping the same radiant exposure of 250 J/cm^2. After the light exposure, the biofilms were carefully washed two times with PBS and 200 μL of PBS was added to each well. Then, the bacterial biofilms in each well were harvested by scratching with a sterile pipette tip and three wells of each group were pooled together in a 1.5 mL microcentrifuge tube. The total volume obtained, 600 μL (3 wells), was sonicated using a Branson 2510 Water Bath Sonicator (Marshall Scientific, LLC) for 5 minutes and the CFU was determined by 10-fold serial dilutions in PBS on BHI agar plates. CFU was counted after overnight incubation at 37° C. Experiments were performed in triplicate.
(§2) A bacterial suspension was grown in a shaking incubator overnight in BHI broth. Cells were collected by centrifugation at 4,000 rpm for 5 minutes and suspended in PBS at a density of 10^6 CFU/mL. Then, the biofilms were grown for 48 hours in 96-well microtiter plates with a renewal of the media every 24 hours. Following the 48-hour biofilm growth, fresh 200 μL of PBS with the tetracyclines minocycline, doxycycline, and demeclocycline in different concentrations were added to the wells and the biofilms were incubated in the dark at 25° C. for 1 hour: 0, 0.25, 0.5, and 1 μg/mL for minocycline; 0, 0.5, 1, and 2 μg/mL for doxycycline; and 0, 0.5, 1, and 2 for demeclocycline. After that, the control and the tetracycline-treated biofilms were maintained without irradiation (“menadione/dark”). […] The total volume obtained, 600 μL (3 wells), was sonicated using a Branson 2510 Water Bath Sonicator (Marshall Scientific, LLC) for 5 minutes and the CFU/mL was determined by 10-fold serial dilutions in PBS on BHI agar plates. CFU was counted after overnight incubation at 37° C.

E. coli biofilm = type: cell-based, Escherichia coli; details: 48 h biofilm; aBL 405 nm, 50-250 J/cm^2
Method: as §1, §2

MRSA biofilm [2] = type: cell-based, methicillin-resistant Staphylococcus aureus; details: 48 h biofilm

Structure (SMILES) | antimicrobial effect of aBL combined with tetracycline (MRSA biofilm [1]) | antimicrobial effect of aBL combined with tetracycline (P. aeruginosa biofilm) | antimicrobial effect of aBL combined with tetracycline (E. coli biofilm) | killing in biofilm by vancomycin combined with aBL (MRSA biofilm [2]; vancomycin 500 μg/mL + aBL 50 mW/cm^2, 250 J/cm^2) [log10 CFU/mL] | effect on biofilms of vancomycin combined with aBL (MRSA biofilm [2]; vancomycin 1 mg/mL) | improvement of aBL antimicrobial effect by vancomycin (MRSA biofilm [2]; vancomycin 5, 15 and 50 μg/mL + aBL 250 J/cm^2)
CN(C)[C@@H]1C(O)=C(C(N)=O)C(=O)[C@@]2(O)C(O)=C3C(=O)c4c(O)ccc(Cl)c4[C@@H](O)[C@H]3C[C@@H]12 [demeclocycline] | enhancement in antimicrobial effects | enhancement in antimicrobial effects | enhancement in antimicrobial effects |  |  | 
CN[C@H](CC(C)C)C(=O)N[C@H]1C(=O)N[C@@H](CC(N)=O)C(=O)N[C@H]2C(=O)N[C@H]3C(=O)N[C@H](C(=O)N[C@H](C(=O)O)c4cc(O)cc(O)c4-c4cc3ccc4O)[C@H](O)c3ccc(c(Cl)c3)Oc3cc2cc(c3O[C@@H]2O[C@H](CO)[C@@H](O)[C@H](O)[C@H]2O[C@H]2C[C@](C)(N)[C@H](O)[C@H](C)O2)Oc2ccc(cc2Cl)[C@H]1O [vancomycin] |  |  |  | 2.65 | only minimal effects | did not show any improvement
